# d = 2'-deoxy (DNA); r = 2'-OH (RNA)
# How the values were obtained:
# IGFBP-5 transcript [1] = assay: IGFBP-5 transcript by RT-PCR in primary human bone fibroblasts; assay type: cell-based; conditions: 50 nM
# Description: Primary human bone fibroblasts were transfected with 50 nM of the 3 species of bispecific siRNA (BS-1, BS-2 and BS-3) or scrambled control. A vehicle only and an untreated control were was also evaluated. Total RNA was extracted and analyzed by RT-PCR for IGFBP-5 transcript.
# IGFBP-5 transcript [2] = assay: IGFBP-5 transcript by RT-PCR in PC3 cells; assay type: cell-based, human; conditions: 10, 50 and 100 nM
# Description: PC3 cells were transfected with various doses (10, 50 and 100 nM) of the 3 species of bispecies siRNA (BS-1, BS-2 and BS-3) or scrambled control. A vehicle only control was also evaluated. Total. RNA was extracted and analyzed by RT-PCR for IGFBP-5 transcript.
# clusterin transcript [3] = assay: Clusterin transcript by Real Time PCR in A549 cells; assay type: cell-based, human; conditions: 10, 50 or 100 nM, two days
# Description: (§1) PC3 cells were transfected with siRNA at levels of 10, 50 or 100 nM or with 100 nM scrambled control. Two days after transfection, total RNA was extracted and the level of clusterin transcript was quantified by Real Time PCR.
# The experiment of Example 9 was repeated using A549 cells in place of PC3 cells.
# clusterin transcript [4] = assay: Clusterin transcript by Real Time PCR in PC3 cells; assay type: cell-based, human; conditions: 10, 50 or 100 nM, two days
# Description: as §1
# PC3 cells = assay: PC3 cell viability with siRNA and Taxol, MTT assay; assay type: cell-based, human; conditions: 25 nM siRNA, then Taxol three days
# Description: PC3 cells were treated once with 25 nM human clusterin siRNAs (CLU-3 and CLU-5), a scrambled control, or oligoFECTAMINE™ only. After two days of treatment, the medium was replaced with medium containing various concentrations of Taxol (Paclitaxel). After three days of incubation, cell viability was determined by MTT assay. FIG. 11 summarizes the results.
# clusterin transcript [5] = assay: Clusterin transcript by Northern blot in PC3 cells; assay type: cell-based, human; conditions: all doses (10, 50 or 100 nM), two days
# Description: PC3 cells were treated (1 pulse) with CLU-3 (Seq ID NOs. 5 and 6) or CLU-5 (Seq ID Nos 9 and 10) or with a scrambled control at levels of 10, 50 or 100 nM, or with oligoFECTAMINE™ only. After two days total RNA was extracted and analyzed for clusterin and GADPH by Northern blotting. Densitometric measurement was performed. FIG. 10 presents results of these measurements after normalization to GADPH.
# CLU protein = assay: CLU gene silencing by siRNA in OS cells (immunoblotting); assay type: cell-based, human; conditions: for CLU protein accumulation following exposure to DXR: KH OS and U-2 OS cells, DXR for 24 h in presence of siRNA; for knock-down of secreted CLU (s-CLU) protein form: OS cells; for cellular CLU protein levels / CLU gene silencing: three OS cell lines, 100 nM siRNA duplex, 2-3 days
# From the text: The human clusterin cDNA was manually scanned in order to identify sequences of the AA(N19)UU (N, any nucleotide) type that fulfill the required criteria for siRNA (Harbourth et al., J Cell Sci 114: 4557-4560 (2001)). Two such sequences with symmetric 2-nt 3′ overhangs, were found 433 (Cl-I) and 644 (Cl-II) nts downstream of the CLU gene transcription initiation codon. Two additional oligonucleotides used targeted a region 1620 nts downstream of the CLU gene transcription initiation codon (Cl-III) and the human CLU transcription initiation site (Cl-V) (see Table). […] Selected RNA oligos were synthesized by Dharmacon Research, Inc. (Lafayette, Colo.), diluted at a 20 μM final concentration in RNasefree ddH2O and stored at −20° C. The Scramble-I™ (Sc-I) (D-1200-20) and Scramble-II™ (Sc-II) (D-1205-20) oligonucleotides used were purchased from Dharmacon Research, Inc.
# siRNA transfection of the Cl-I, Cl-II and scrambled RNA duplexes in exponentiary growing OS cells was performed as described (Harbourth et al., Tuschl et al., Genes Dev. 13: 3191-3197 (1999)). Briefly, cells were seeded the day before siRNA transfection in 24-well plates containing 500 μl complete medium and were ˜40-50% confluent during transfection. For the transfection mixture 100 nM of siRNA duplex per well were used. The RNA duplex was diluted in Opti-MEM® I (Gibco Life Technologies, Inc., San Diego, Calif.) serum free medium and transfection efficiency was enhanced by using the Oligofectamine™ reagent (Invitrogen Life technologies Inc., San Diego, Calif.). When cells were treated with both Cl-i and Cl-II oligonucleotides, 100 nM of each siRNA duplex were used. Cell treatment with the siRNA oligonucleotides lasted for 2-3 days.
# (§2) Alternatively, in PC3 cells Lipofectin™ (Invitrogen Life technologies Inc., San Diego, Calif.) was used to enhance transfection with the Cl-III and CL-V oligonucleotides. PC3 cells were treated with 10, 50, or 100 nM of the RNA duplexes after pre-incubation with 4 μg/ml of […] reagent in serum free OptiMEM® I for 20 minutes. Four hours after starting the incubation, the medium containing the RNA duplexes and Lipofectin was replaced with standard tissue culture medium. Cells were treated once on day 1 and then harvested 48 h after treatment on day 3. In all cases controls used included: (a) the usage of the Sc-I and Sc-II RNA duplexes and (b) mock transfections in the absence of a nucleic acid (Con-I). CLU gene silencing was assayed by RNA blot analysis, immunoblotting analysis or confocal immunofluorescence.
# Efficient silencing of the CLU gene expression in OS cells is achieved using siRNA.
# [6] = test system: 55 kDa n-CLU protein form; assay: Expression of n-CLU protein form after siRNA; assay type: cell-based, human; conditions: KH OS and U-2 OS cells
# From the text: (§3) OS cells sensitization to genotoxic and oxidative stress due to CLU gene silencing is related to activation of the cellular apoptotic machinery. […] We assume that the explanation of this effect relies on our observation that the n-CLU protein is extremely stable.
# [7] = test system: 49 kDa c-CLU protein form; assay: Expression of c-CLU protein form after siRNA; assay type: cell-based, human; conditions: KH OS and U-2 OS cells
# From the text: as §3
# CLU mRNA and protein = assay: CLU gene silencing by siRNA in PC3 cells (RNA blot, immunoblot); assay type: cell-based, human; conditions: sequence-dependent but dose-independent
# Description: as §2
# Effects of CLU gene silencing in PC-3 prostate cancer cells were determined. Having established the significant effects of CLU knock down in OS cells, we then applied CLU siRNA in PC3 human prostate cancer cells. PC3 cells are p53 null (Rohlff, et al., Prostate 37: 51-59 (1998)) and express relatively low endogenous amount of the s-CLU protein form similar to the Sa OS cells. In PC3 cells, apart from employing the Cl-I and Cl-II oligonucleotides, we also tested two additional CLU-specific siRNA oligonucleotides (Cl-III, Cl-V). […]
substance,measurement,setting,value
"BS-1: IGFBP-2 and -5 bispecific siRNA, double-stranded RNA from Seq. ID NOs. 39 and 40 (chain 1 GGAGCCGGGCUGCGGCUGCTT; chain 2 GCAGCCGCAGCCCGGCUCCTT; sugars from the 5' end r19 d2, backbone not given here)",amount of IGFBP-5 transcript,IGFBP-5 transcript [1],reduction in the amount of IGFBP-5 transcript
same,amount of IGFBP-5 transcript,IGFBP-5 transcript [2],reduction in the amount of IGFBP-5 transcript
"BS-2: IGFBP-2 and -5 bispecific siRNA, double-stranded RNA from Seq. ID NOs. 41 and 42 (chain 1 CGUGCGGCGUCUACACCTT; chain 2 GGUGUAGACGCCGCACGTT; sugars from the 5' end r17 d2, backbone not given here)",amount of IGFBP-5 transcript,IGFBP-5 transcript [1],reduction in the amount of IGFBP-5 transcript
same,amount of IGFBP-5 transcript,IGFBP-5 transcript [2],reduction in the amount of IGFBP-5 transcript
"BS-3: IGFBP-2 and -5 bispecific siRNA, double-stranded RNA from Seq. ID NOs. 43 and 44 (chain 1 CCAGGGGCUGCGCUGCTT; chain 2 GCAGCGCAGCCCCUGGTT; sugars from the 5' end r16 d2, backbone not given here)",amount of IGFBP-5 transcript,IGFBP-5 transcript [1],reduction in the amount of IGFBP-5 transcript
same,amount of IGFBP-5 transcript,IGFBP-5 transcript [2],reduction in the amount of IGFBP-5 transcript
"CLU1: clusterin siRNA, double-stranded RNA from Seq. ID NOs. 1 and 2 (chain 1 CCAGAGCUCGCCCUUCUACTT; chain 2 GUAGAAGGGCGAGCUCUGGTT; sugars from the 5' end r19 d2, backbone not given here)",amount of clusterin transcript,clusterin transcript [3],reduction in the amount of clusterin transcript
same,amount of clusterin transcript,clusterin transcript [4],reduction in the amount of clusterin transcript
"CLU3: clusterin siRNA, double-stranded RNA from Seq. ID NOs. 5 and 6 (chain 1 CUAAUUCAAUAAAACUGUCTT; chain 2 GACAGUUUUAUUGAAUUAGTT; sugars from the 5' end r19 d2, backbone not given here)",viable cells with siRNA plus Taxol,PC3 cells,worked in synergy
same,amount of clusterin transcript,clusterin transcript [3],reduction in the amount of clusterin transcript
same,amount of clusterin transcript normalized to GADPH,clusterin transcript [5],Reduction in the amount of clusterin transcript
same,amount of clusterin transcript,clusterin transcript [4],reduction in the amount of clusterin transcript
"Cl-I: clusterin siRNA duplex, SEQ. ID No: 58 and 59; target 433 nts downstream of CLU transcription initiation codon (chain 1 CCAGAGCUCGCCCUUCUACTT; chain 2 GUAGAAGGGCGAGCUCUGGTT; sugars from the 5' end r19 d2, backbone not given here)",CLU protein accumulation following exposure to DXR,CLU protein,effectively abolished
same,"effectiveness in silencing the CLU gene, Cl-I compared with Cl-II",CLU protein; OS cell lines,slightly more effective than Cl-II
same,knock-down of secreted CLU (s-CLU) protein form,CLU protein,specifically knock-down
same,cellular CLU protein levels / CLU gene silencing,CLU protein,knocking down significantly
same,effect on putative 55 kDa n-CLU protein form,[6],did not exert any significant effect
same,effect on 49 kDa c-CLU protein form level,[7],minor effect
"Cl-II: clusterin siRNA duplex, SEQ. ID No: 61 and 62; target 644 nts downstream of CLU transcription initiation codon (chain 1 GUCCCGCAUCGUCCGCAGCTT; chain 2 GCUGCGGACGAUGCGGGACTT; sugars from the 5' end r19 d2, backbone not given here)",CLU protein accumulation following exposure to DXR,CLU protein,effectively abolished
same,knock-down of secreted CLU (s-CLU) protein form,CLU protein,specifically knock-down
same,cellular CLU protein levels / CLU gene silencing,CLU protein,knocking down significantly
same,effect on putative 55 kDa n-CLU protein form,[6],did not exert any significant effect
same,effect on 49 kDa c-CLU protein form level,[7],minor effect
"Cl-III: clusterin siRNA duplex, SEQ. ID No: 64 and 65; targets region 1620 nts downstream of initiation codon (chain 1 CUAAUUCAAUAAAACUGUCTT; chain 2 GACAGUUUUAUUGAAUUAGTT; sugars from the 5' end r19 d2, backbone not given here)",silencing CLU RNA and protein expression,CLU mRNA and protein,quite effective
"Cl-V: clusterin siRNA duplex targeting the human CLU transcription initiation site; Table 7 Cl-IV, SEQ. ID No: 67 and 68 (chain 1 AUGAUGAAGACUCUGCUGC; chain 2 GCAGCAGAGUCUUCAUCAU; RNA, backbone not given here) [clusterin siRNA duplex targeting the human CLU transcription initiation site; ID No: 67 and 68]",silencing CLU RNA and protein expression,CLU mRNA and protein,quite effective
